Results published in patent US20250326739A1, “CD38 MODULATORS AND USES THEREOF” (Aeovian Pharmaceuticals, Inc., priority 2022, published 2025).

What was measured:
human CD38 = human CD38 (Homo sapiens (Human), UniProt P28907); experiment: NAD+ cyclase activity assay with human recombinant CD38 protein; format: biochemical; details: 1.9 nM human CD38, 15.8 μM e-NAD substrate, fluorescence read-out
Method: (§1) Example 5: NAD^+ Cydase Activity Assay with Human or Mouse Recombinant CD38 Protein
(§2) The following assay was used to determine the ability of compounds of the invention to inhibit the hydrolysis of NAD^+ by the human or mouse enzyme, CD38.
(§3) Reaction buffer: 40 mM HEPES/NaOH pH 7.5, 250 mM sucrose, 0.01% Tween
(§4) Final concentrations: 0.6 nM mouse CD38 (4947-AC, Bio-Techne GmbH) 1.9 nM human CD38 (AVI2404, Bio-Techne GmbH)
(§5) Substrate: 15.8 μM Nicotinamide 1,N6-ethenoadenine dinucleotide (E-NAD)
(§6) Read-out: Fluorescence intensity (extinction 300 nm/emission 410 nm)
(§7) Required reaction buffer, required CD38 concentration in reaction buffer and required e-NAD concentration in reaction buffer were prepared. Thereafter, 8 μL of CD38 in reaction buffer were added to High Control and compound concentration wells in 384 well plate (Corning #4514, 384 well, nonbinding surface, low volume, round bottom) and 8 μL of reaction buffer to Low Control. Compound dilutions were transferred via pintool technology that transfers 42.5 nL compound dilutions (12-point dose-response with factor three dilutions in 100% DMSO) well-to-well. Plate was subsequently shaken for 15 s at 1450 rpm and sealed for incubation for 30 min at room temperature. Thereafter, 2 μL of e-NAD in reaction buffer were added with Integra Voyager. After shaking for 15 s at 1450 rpm, plate was sealed, and assay signal was measured continuously with PHERAstar® fluorescence intensity module (extinction 300 nm/emission 410 nm).
(§8) Dose-response curves were constructed using twelve-point factor three dilutions in triplicates per plate. High control (full enzyme activity) was set to assay signal of CD38 and e-NAD in presence of vehicle (DMSO) and Low control (full enzyme inhibition) was set to assay signal of e-NAD and vehicle (DMSO) in absence of CD38. For data analysis, fluorescent signal of traces corresponding to each compound concentration and High and Low control was monitored over time. Each run, High Control (full enzyme activity) was fitted to Linear equation via GraphPad Prism to determine CD38 activity from the slope and determine the time interval of linear phase of reaction to account for minor fluctuations. Thereafter, slopes of all compound concentrations were determined via fitting to same linear equation (GraphPad Prism) over the same time interval as determined for High control. Percentage inhibition was calculated via normalization to High and Low Control via the equation: %−inhibition=100*(1−((Sample−Low control)/(High control−Low control))) Half maximal inhibitory concentration (IC50) values are yielded from the inflection point of the corresponding curve by fitting of resulting percentage inhibition values to standard equation (4 Parameter Logistic Model or Sigmoidal Dose-Response Model) via Excel Fit. Unless otherwise stated, fitting of curves was fixed to 100%-inhibition and unlocked for 0%-inhibition.

mouse CD38 = mouse CD38 (Mus musculus (Mouse), UniProt P56528); experiment: NAD+ cyclase activity assay with mouse recombinant CD38 protein; format: biochemical; details: 0.6 nM mouse CD38, 15.8 μM e-NAD substrate, fluorescence read-out
mouse CD38, sequence (P56528 whole entry): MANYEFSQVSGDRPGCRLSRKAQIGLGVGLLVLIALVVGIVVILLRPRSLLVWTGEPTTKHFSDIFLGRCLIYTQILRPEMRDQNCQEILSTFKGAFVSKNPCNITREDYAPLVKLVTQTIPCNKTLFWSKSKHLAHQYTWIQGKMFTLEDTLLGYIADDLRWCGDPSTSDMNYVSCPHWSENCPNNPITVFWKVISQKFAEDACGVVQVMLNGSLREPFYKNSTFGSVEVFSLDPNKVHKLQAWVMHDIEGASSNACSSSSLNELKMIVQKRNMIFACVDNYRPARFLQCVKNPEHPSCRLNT
Method: as §1, §2, §3, §4, §5, §6, §7, §8

human CD38, sequence (P28907 whole entry): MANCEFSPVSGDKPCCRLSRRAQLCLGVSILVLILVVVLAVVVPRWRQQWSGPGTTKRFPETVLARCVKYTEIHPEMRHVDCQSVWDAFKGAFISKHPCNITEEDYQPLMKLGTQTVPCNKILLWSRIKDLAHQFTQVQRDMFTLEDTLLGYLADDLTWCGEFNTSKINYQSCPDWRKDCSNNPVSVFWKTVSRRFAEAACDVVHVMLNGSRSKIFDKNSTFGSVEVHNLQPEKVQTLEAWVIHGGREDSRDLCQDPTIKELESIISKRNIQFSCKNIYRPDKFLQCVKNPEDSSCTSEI

Row | SMILES | IC50 (human CD38) | IC50 (mouse CD38)
1 | Cc1cc(C(=O)NC2CCN(S(C)(=O)=O)CC2)nc(-n2ccnc2)c1 [Compound 1A, 6-(1H-Imidazol-1-yl)-4-methyl-N-(1-(methylsulfonyl)piperidin-4-yl)picolinamide] | 30 to 100 nM | 1 to 10 nM
2 | CCS(=O)(=O)N1CCC(NC(=O)c2cc(C)cc(-n3ccnc3)n2)CC1 [Compound 2A, N-(1-(Ethylsulfonyl)piperidin-4-yl)-6-(1H-imidazol-1-yl)-4-methylpicolinamide] | < 30 nM | 1 to 10 nM
3 | Cc1cc(C(=O)NC2CCN(S(=O)(=O)C3CC3)CC2)nc(-n2ccnc2)c1 [Compound 3A, N-(1-(cyclopropylsulfonyl)piperidin-4-yl)-6-(1H-imidazol-1-yl)-4-methylpicolinamide] | < 30 nM | 1 to 10 nM
4 | COCCS(=O)(=O)N1CCC(NC(=O)c2cc(C)cc(-n3ccnc3)n2)CC1 [Compound 4A, 6-(1H-Imidazol-1-yl)-N-(1-((2-methoxyethyl)sulfonyl)piperidin-4-yl)-4-methylpicolinamide] | < 30 nM | 1 to 10 nM
5 | Cc1cc(C(=O)NC2CCN(S(=O)(=O)C3CCCCC3)CC2)nc(-n2ccnc2)c1 [Compound 5A, N-(1-(Cyclohexylsulfonyl)piperidin-4-yl)-6-(1H-imidazol-1-yl)-4-methylpicolinamide] | < 30 nM | 1 to 10 nM
6 | CCCS(=O)(=O)N1CCC(NC(=O)c2cc(C)cc(-n3ccnc3)n2)CC1 [Compound 6A, 6-(1H-Imidazol-1-yl)-4-methyl-N-(1-(propylsulfonyl)piperidin-4-yl)picolinamide] | < 30 nM | 1 to 10 nM
7 | Cc1cc(C(=O)NC2CN(S(C)(=O)=O)C2)nc(-n2ccnc2)c1 [Compound 7A, 6-(1H-Imidazol-1-yl)-4-methyl-N-(1-(methylsulfonyl)azetidin-3-yl)picolinamide] | 30 to 100 nM | 1 to 10 nM
8 | Cc1cc(C(=O)NC2CCC(F)(F)CC2)nc(-n2ccnc2)c1 [Compound 8A, N-(4,4-Difluorocyclohexyl)-6-(1H-imidazol-1-yl)-4-methylpicolinamide] | < 30 nM | 1 to 10 nM
9 | Cc1cc(C(=O)NC2CCCOC2)nc(-n2ccnc2)c1 (stereo not shown) [Compound 9A, 6-(1H-Imidazol-1-yl)-4-methyl-N-(tetrahydro-2H-pyran-3-yl)picolinamide] | < 30 nM | 1 to 10 nM
10 | CC(=O)N1CCC(NC(=O)c2cc(C)cc(-n3ccnc3)n2)CC1 [Compound 10A, N-(1-Acetylpiperidin-4-yl)-6-(1H-imidazol-1-yl)-4-methylpicolinamide] | 30 to 100 nM | 1 to 10 nM
11 | Cc1cc(C(=O)NC2CCNCC2)nc(-n2ccnc2)c1 [Compound 11A, 6-(1H-Imidazol-1-yl)-4-methyl-N-(piperidin-4-yl)picolinamide] | > 1000 nM | 1 to 10 nM
12 | Cc1cc(C(=O)NC2CCC2)nc(-n2ccnc2)c1 [Compound 12A, N-Cyclobutyl-6-(1H-imidazol-1-yl)-4-methylpicolinamide] | 30 to 100 nM | 1 to 10 nM
13 | CCCC(=O)N1CCC(NC(=O)c2cc(C)cc(-n3ccnc3)n2)CC1 [Compound 13A, N-(1-Butyrylpiperidine-4-yl)-6-(1H-imidazol-1-yl)-4-methylpicolinamide] | 30 to 100 nM | 1 to 10 nM
14 | CNS(=O)(=O)N1CCC(NC(=O)c2cc(C)cc(-n3ccnc3)n2)CC1 [Compound 14A, 6-(1H-Imidazol-1-yl)-4-methyl-N-(1-(N-methylsulfamoyl)piperidin-4-yl)picolinamide] | 100 to 1000 nM | 1 to 10 nM
15 | COc1cc(C(=O)NC2CCN(S(C)(=O)=O)CC2)nc(-n2ccnc2)c1 [Compound 15A, 6-(1H-Imidazol-1-yl)-4-methoxy-N-(1-(methylsulfonyl)piperidin-4-yl)picolinamide] | 30 to 100 nM | 1 to 10 nM
16 | CS(=O)(=O)N1CCC(NC(=O)c2cccc(-n3ccnc3)n2)CC1 [Compound 16A, 6-(1H-Imidazol-1-yl)-N-(1-(methylsulfonyl)piperidin-4-yl)picolinamide] | 30 to 100 nM | 1 to 10 nM
17 | Cc1cc(C(=O)NC2CCOCC2(C)C)nc(-n2ccnc2)c1 (stereo not shown) [Compound 27A, N-(3,3-Dimethyltetrahydro-2H-pyran-4-yl)-6-(1H-imidazol-1-yl)-4-methylpicolinamide] | 100 to 1000 nM | 10 to 100 nM

The next lines start with the values.

Row | IC50 (human CD38) | IC50 (mouse CD38) | SMILES
18 | 100 to 1000 nM | 1 to 10 nM | Cc1cc(C(=O)NC2COCC(F)(F)C2)nc(-n2ccnc2)c1 (stereo in doubt) [Compound 67A, (R)—N-(5,5-Ddifluorotetrahydro-2H-pyran-3-yl)-6-(1H-imidazol-1-yl)-4-methylpicolinamide]
19 | < 30 nM | 1 to 10 nM | Cc1cc(C(=O)NC2CCN(S(=O)(=O)N(C)C)CC2)nc(-n2ccnc2)c1 [Compound 18A, N-(1-(N,N-Dimethylsulfamoyl)piperidin-4-yl)-6-(1H-imidazol-1-yl)-4-methylpicolinamide]
20 | 30 to 100 nM | 1 to 10 nM | Cc1cc(C(=O)NC2CCN(C(=O)CN3CCOCC3)CC2)nc(-n2ccnc2)c1 [Compound 19A, 6-(1H-Imidazol-1-yl)-4-methyl-N-(1-(2-morpholinoacetyl)piperidin-4-yl)picolinamide]
21 | 30 to 100 nM | 1 to 10 nM | COCCC(=O)N1CCC(NC(=O)c2cc(C)cc(-n3ccnc3)n2)CC1 [Compound 20A, 6-(1H-Imidazol-1-yl)-N-(1-(3-methoxypropanoyl)piperidin-4-yl)-4-methylpicolinamide]
22 | 30 to 100 nM | 1 to 10 nM | Cc1cc(C(=O)NC2CCN(C(=O)N(C)C)CC2)nc(-n2ccnc2)c1 [Compound 21A, N-(1-(Dimethylcarbamoyl)piperidin-4-yl)-6-(1H-imidazol-1-yl)-4-methylpicolinamide]
23 | < 30 nM | 1 to 10 nM | CNC(=O)N1CCC(NC(=O)c2cc(C)cc(-n3ccnc3)n2)CC1 [Compound 22A, 6-(1H-Imidazol-1-yl)-4-methyl-N-(1-(methylcarbamoyl)piperidin-4-yl)picolinamide]
24 | 30 to 100 nM | 1 to 10 nM | Cc1cc(C(=O)NC2CCS(=O)(=O)C2)nc(-n2ccnc2)c1 (stereo not shown) [Compound 23A, N-(1,1-Dioxidotetrahydrothiophen-3-yl)-6-(1H-imidazol-1-yl)-4-methylpicolinamide]
25 | 100 to 1000 nM | 1 to 10 nM | Cc1cc(C(=O)NC2CCOC(C)(C)C2)nc(-n2ccnc2)c1 (stereo not shown) [Compound 24A, N-(2,2-Dimethyltetrahydro-2H-pyran-4-yl)-6-(1H-imidazol-1-yl)-4-methylpicolinamide]
26 | 30 to 100 nM | 1 to 10 nM | Cc1cc(C(=O)NC2COCCC2(F)F)nc(-n2ccnc2)c1 (stereo not shown) [Compound 25A, N-(4,4-Difluorotetrahydro-2H-pyran-3-yl)-6-(1H-imidazol-1-yl)-4-methylpicolinamide]
27 | 30 to 100 nM | 1 to 10 nM | Cc1cc(C(=O)NC2COCC(F)(F)C2)nc(-n2ccnc2)c1 (stereo not shown) [Compound 26A, N-(5,5-Difluorotetrahydro-2H-pyran-3-yl)-6-(1H-imidazol-1-yl)-4-methylpicolinamide]
28 | 100 to 1000 nM | 1 to 10 nM | Cc1cc(C(=O)NC2CC3CCC(C2)O3)nc(-n2ccnc2)c1 (stereo not shown) [Compound 28A, N-(8-Oxabicyclo[3.2.1]octan-3-yl)-6-(1H-imidazol-1-yl)-4-methylpicolinamide]
29 | 30 to 100 nM | 1 to 10 nM | Cc1cc(C(=O)NC2CCC(C)(C)OC2)nc(-n2ccnc2)c1 (stereo not shown) [Compound 29A, N-(6,6-Dimethyltetrahydro-2H-pyran-3-yl)-6-(1H-imidazol-1-yl)-4-methylpicolinamide]
30 | 30 to 100 nM | 1 to 10 nM | Cc1cc(C(=O)NC2CCOC(C)C2)nc(-n2ccnc2)c1 (stereo not shown) [Compound 30A, 6-(1H-Imidazol-1-yl)-4-methyl-N-(2-methyltetrahydro-2H-pyran-4-yl)picolinamide]
31 | 30 to 100 nM | 1 to 10 nM | Cc1cc(C(=O)NC2C3COCC32)nc(-n2ccnc2)c1 (stereo not shown) [Compound 31A, N-(3-Oxabicyclo[3.1.0]hexan-6-yl)-6-(1H-imidazol-1-yl)-4-methylpicolinamide]
32 | 30 to 100 nM | 1 to 10 nM | Cc1cc(C(=O)NC2CCOCC2)nc(-n2ccnc2)c1 [Compound 32A, 6-(1H-Imidazol-1-yl)-4-methyl-N-(tetrahydro-2H-pyran-4-yl)picolinamide]
